# Earlier results, collected in patent US20030206884A1, “Embalming fluid” (AARD-BALM LIMITED, priority 2000, published 2003).
# System: eyes, nose and throat
smiles,measurement,value
C=O [formaldehyde],"airborne concentration causing irritation of the eyes, nose and throat",above 0.1 ppm
same,airborne concentration that is a danger to life and health,100 ppm
